In experiment [1] the test system is Umbelopsis ramanniana. As to the kind of experiment: Antifungal activity against Mortierella ramanniana at 5 ug/disk. Format: functional, organism-based.
Experiment [2] deals with P388. As to the kind of experiment: Cytotoxicity against mouse P388 cells. Type of experiment: functional, cell-based.
For experiment [3], the system named is Umbelopsis ramanniana. The experiment is described as follows: Antifungal activity against Mortierella ramanniana at 160 ug/disk. Type of experiment: functional, organism-based.
The subject of experiment [4] is P388. As to the kind of experiment: Cytotoxicity against mouse P388 cells at 5 ug/mL. Type of experiment: functional, cell-based.

The source made the active and inactive calls. No cut-off for these calls is given here.

As usually defined, the IC50 is the midpoint of a concentration-inhibition curve. Low readings indicate greater potency, high ones weaker potency. As to `CC(C)[C@H](NC(=O)[C@H](NC(=O)[C@@H]1CCCN1C(=O)[C@H](Cc1ccc(Br)cc1)NC(=O)[C@@H](C)NC=O)C(C)C)C(=O)N[C@H](Cc1c[nH]c2ccccc12)C(=O)N[C@@H](CCCNC(=N)N)C(=O)N[C@H](CS(=O)(=O)[O-])C(=O)N[C@@H]1C(=O)N(C)[C@@H](CCC(N)=O)C(=O)N[C@H](Cc2ccccc2)C(=O)NCC(=O)N[C@H](CC(N)=O)C(=O)O[C@@H]1C.[Na+]` [HALICYLINDRAMIDE D], the outcome with Umbelopsis ramanniana [1] was Active. The same compound gave an IC50 in the experiment with P388 [2] of 2.1 µg/mL.
As to `CC(C)[C@@H](NC(=O)[C@@H]1CCCN1C(=O)[C@H](Cc1ccc(Br)cc1)NC(=O)[C@@H](C)NC=O)C(=O)N[C@H](C(=O)N[C@H](Cc1c[nH]c2ccccc12)C(=O)N[C@@H](CCCNC(=N)N)C(=O)N[C@H](CS(=O)(=O)O)C(=O)N[C@H](C(=O)N(C)[C@@H](CCC(N)=O)C(=O)N[C@H](Cc1ccccc1)C(N)=O)[C@@H](C)O)C(C)(C)C`, the outcome in the experiment on Umbelopsis ramanniana [3] was Active. In addition, the outcome with P388 [4] was inactive.
